# Reference: patent US20160215348A1, “GENE EXPRESSION BIOMARKERS AND THEIR USE FOR DIAGNOSTIC AND PROGNOSTIC APPLICATION IN PATIENTS POTENTIALLY IN NEED OF HDAC INHIBITOR TREATMENT” (4SC AG, priority 2013, published 2016)
# Columns and labels:
# [1] = test system: CCDC43; assay: Gene expression in HT29 cancer cells (in vitro); assay type: cell-based, human; details: standardized to 0 h
# Experimental: (§1) Hatched columns relate to blood, black columns relate to HepG2 cells, white boxes relate to HT 29 cells. Values are standardized to the value at 0 h.
# (§2) Samples were obtained and gene expressions were determined with the methods as described herein below. The results are shown in below table 3 and FIGS. 2 and 3
# (§3) The above values represent a mean value which was determined on the basis of 2 biological replicates, for each of which 3 technical replicates were prepared. […] The level of gene expression determined in peripheral blood samples can be correlated with a certain level of activity of HDAC in the diseased cells, e.g. by applying an appropriate conversion factor or conversion table, which may be determined for each specific disease, and/or patient group.
# (§4) To determine RNA expression levels of ZFP64 in different cancer cell lines and PBMC, the cell membranes were chemically disrupted with a buffer containing guanidine isothiocycanate, which lyses the cells and supports the binding of RNA to a silica membrane and RNA was extracted via a filter-based spin column.
# (§5) The High-Capacity cDNA Reverse Transcription Kit (Applied Biosystems) was used for reverse transcription of total RNA into single stranded cDNA with the aid of random hexamer primers according to the manufacturer's instructions. Briefly, for the reaction mix total RNA was mixed with random primers in excess, 4 mM dNTP Mix, 2.5 U/reaction, reverse transcriptase and nuclease free water. The reverse transcription took place in a thermal cycler under the following conditions: 25° C. for 10 min, 37° C. for 120 min, 85° C. for 5 min, followed by 4° C. for cooling down the reaction. The reverse transcription can be done in principle as well with other reverse transcriptases, primers and temperature protocols. Whenever possible, 250 ng total RNA were reverse transcribed if not available, lower amounts were used.
# (§6) Custom TaqMan® Arrays (Applied Biosystems) in Format 16 were designed for the gene expression analysis of biomarkers of the present invention and housekeeping genes as outlined in table 4. These arrays allow for qPCR analysis of 8 samples per card. Of course, all reactions can be done as well by conventional qPCR analysis with specific primers.
# [2] = test system: DPP3; assay: Gene expression in HT29 cancer cells (in vitro); assay type: cell-based, human; details: standardized to 0 h
# Experimental: as §1, §2, §3, §4, §5, §6
# [3] = test system: GAPDH; assay: Gene expression in HT29 cancer cells (in vitro); assay type: cell-based, human; details: standardized to 0 h
# Experimental: as §1, §2, §3, §4, §5, §6
# [4] = test system: MICALL1; assay: Gene expression in HT29 cancer cells (in vitro); assay type: cell-based, human; details: standardized to 0 h
# Experimental: as §1, §2, §3, §4, §5, §6
# [5] = test system: 18S; assay: Gene expression in HT29 cancer cells (in vitro); assay type: cell-based, human; details: standardized to 0 h
# Experimental: as §1, §2, §3, §4, §5, §6
# [6] = test system: ZFP64; assay: Gene expression in HT29 cancer cells (in vitro); assay type: cell-based, human; details: standardized to 0 h
# Experimental: as §1, §2, §3, §4, §5, §6
# [7] = test system: KDELC2; assay: Gene expression in HT29 cancer cells (in vitro); assay type: cell-based, human; details: standardized to 0 h
# Experimental: as §1, §2, §3, §4, §5, §6
# [8] = test system: HIST2H4A/B; assay: Gene expression in HT29 cancer cells (in vitro); assay type: cell-based, human; details: standardized to 0 h
# Experimental: as §1, §2, §3, §4, §5, §6
# [9] = test system: TBP; assay: Gene expression in HT29 cancer cells (in vitro); assay type: cell-based, human; details: standardized to 0 h
# Experimental: as §1, §2, §3, §4, §5, §6
# [10] = test system: CCDC43; assay: qPCR relative expression (vs cycle 1, day 1, hour 0) in patients' whole blood; assay type: in vivo, human
# Experimental: (§7) 2.5 ml whole blood from patients was collected in PAXgene™ tubes (BD Biosciences) that contain chemicals to lyse the erythrocytes, stabilize RNA from degradation by RNases and minimize ex vivo changes in gene expression. The samples were incubated at 20° C. to 25° C. for 2 hours and then frozen at −20° C. until purification of total RNA.
# (§8) Total RNA was isolated from the whole blood samples stabilized in PAXgene™ buffer using a spin column based technique suitable for whole blood samples (like PAXgene™ Blood miRNA Kit or PAXgene™ Blood RNA Kit from Qiagen) according to the manufacturer's instructions. The purification began with a centrifugation step to pellet nucleic acids in the (PAXgene™ Blood RNA) tube. The resuspended pellet was incubated in buffers, optimized for maintenance of RNA stability together with proteinase K to bring about protein digestion. An additional centrifugation through the PAXgene™ Shredder spin column was carried out to homogenize the cell lysate and remove residual cell debris, and the supernatant of the flow-through fraction was transferred to a fresh microcentrifuge tube. Ethanol was added to adjust binding conditions, and the lysate was applied to a PAXgene™ RNA spin column. During a brief centrifugation, RNA was selectively bound to the PAXgene™ silica membrane as contaminants pass through. Remaining contaminants were removed in several efficient wash steps. Between the first and second wash steps, the membrane was treated with DNase I, as described herein below in 1.3 to remove trace amounts of bound DNA. After the wash steps, RNA was eluted in nuclease free water and heat-denatured.
# as §5, §6
# (§9) The reaction mix was transferred into the reaction chambers by centrifuging twice for 1 minute each at 330 g and 4° C. After sealing, the microfluidic cards were run on an AB7900HT instrument (Applied Biosystems). The software SDS 2.4 (Applied Biosystems) was employed for instrument control, data acquisition and raw data analysis. The plates were run in Relative Quantification (ΔΔCt) mode, and the following temperature profile was used:
# (§10) This analysis was carried out for each patient separately. The first sample (cycle 1, day 1, hour 0) was used as the reference sample. The ‘exprs’ value indicates relative expression levels (fold change values) for individual samples.
# (§11) Table 5 contains the median expression level values for treatment day 5 (cycle 1, day 5, hours 0, 2, and 5) at a daily dose of 600 mg or 800 mg Resminostat mesylate salt is given below.
# [11] = test system: MICALL1; assay: as above; assay type: in vivo, human
# Experimental: as §7, §8, §5, §6, §9, §10, §11
# [12] = test system: ZFP64; assay: as above; assay type: in vivo, human
# Experimental: as §7, §8, §5, §6, §9, §10, §11
# [13] = test system: TBP; assay: as above; assay type: in vivo, human
# Experimental: as §7, §8, §5, §6, §9, §10, §11
# [14] = cycle 1, day 5, hour 0, 600 mg dose
# [15] = cycle 1, day 5, hour 0, 800 mg dose
# [16] = cycle 1, day 5, hour 2, 600 mg dose
# [17] = cycle 1, day 5, hour 2, 800 mg dose
# [18] = cycle 1, day 5, hour 5, 600 mg dose
# [19] = cycle 1, day 5, hour 5, 800 mg dose
structure (smiles),measurement,setting,value
"CN(C)Cc1ccc(S(=O)(=O)n2ccc(/C=C/C(=O)NO)c2)cc1 [resminostat, (E)-3-(1-(4-((dimethylamino)methyl)phenylsulfonyl)-1H-pyrrol-3-yl)-N-hydroxyacrylamide]","Expression level, CCDC43",[1]; 2 h,0.82
same,"Expression level, CCDC43",[1]; 5 h,0.53
same,"Expression level, DPP3",[2]; 2 h,0.87
same,"Expression level, DPP3",[2]; 5 h,0.72
same,"Expression level, GAPDH (housekeeping gene)",[3]; 2 h,0.93
same,"Expression level, GAPDH (housekeeping gene)",[3]; 5 h,0.97
same,"Expression level, MICALL1",[4]; 2 h,0.81
same,"Expression level, MICALL1",[4]; 5 h,0.42
same,"Expression level, 18s (housekeeping gene)",[5]; 2 h,0.94
same,"Expression level, 18s (housekeeping gene)",[5]; 5 h,0.91
same,"Expression level, ZFP64",[6]; 2 h,0.58
same,"Expression level, ZFP64",[6]; 5 h,0.25
same,"Expression level, KDELC2",[7]; 2 h,0.79
same,"Expression level, KDELC2",[7]; 5 h,0.35
same,"Expression level, HIST2H4A/B",[8]; 2 h,0.96
same,"Expression level, HIST2H4A/B",[8]; 5 h,0.88
same,"Expression level, TBP (housekeeping gene)",[9]; 2 h,1.15
same,"Expression level, TBP (housekeeping gene)",[9]; 5 h,1.13
same,"Median expression level, CCDC43",[10]; [14],0.917
same,"Median expression level, CCDC43",[10]; [15],1.391
same,"Median expression level, CCDC43",[10]; [16],0.318
same,"Median expression level, CCDC43",[10]; [17],0.329
same,"Median expression level, CCDC43",[10]; [18],0.378
same,"Median expression level, CCDC43",[10]; [19],0.319
same,"Median expression level, MICALL1",[11]; [14],0.981
same,"Median expression level, MICALL1",[11]; [15],1.024
same,"Median expression level, MICALL1",[11]; [16],0.395
same,"Median expression level, MICALL1",[11]; [17],0.407
same,"Median expression level, MICALL1",[11]; [18],0.201
same,"Median expression level, MICALL1",[11]; [19],0.163
same,ZFP64 expression in cancer patients (FIG. 4b),"[12]; blood cells of HCC and HL patients, 600 or 800 mg daily, Day 1 and Day 5",down-regulates
same,"Median expression level, ZFP64",[12]; [14],0.980
same,"Median expression level, ZFP64",[12]; [15],1.280
same,"Median expression level, ZFP64",[12]; [16],0.412
same,"Median expression level, ZFP64",[12]; [17],0.356
same,"Median expression level, ZFP64",[12]; [18],0.228
same,"Median expression level, ZFP64",[12]; [19],0.188
same,"Median expression level, TBP",[13]; [14],0.991
same,"Median expression level, TBP",[13]; [15],1.305
same,"Median expression level, TBP",[13]; [16],0.994
same,"Median expression level, TBP",[13]; [17],1.071
same,"Median expression level, TBP",[13]; [18],1.052
same,"Median expression level, TBP",[13]; [19],1.286
